Experimental data from PMC11822212, “High-throughput screening identifies Aurora kinase B as a critical therapeutic target for Merkel cell carcinoma” (Nature Communications, 2025).

Legend:
[1] = tested on: MCC13 cells (VN-MCC); experiment: qHTS cell viability (CellTiter-Glo, 72 h; primary and follow-up small molecule screen); format: cell-based, human
[2] = tested on: MCC26 cells (VN-MCC); experiment: as above; format: cell-based, human
[3] = tested on: UISO cells (VN-MCC); experiment: as above; format: cell-based, human
[4] = tested on: WAGA cells (VP-MCC); experiment: as above; format: cell-based, human
[5] = tested on: MKL-1 cells (VP-MCC); experiment: as above; format: cell-based, human
[6] = tested on: MKL-2 cells (VP-MCC); experiment: as above; format: cell-based, human
[7] = tested on: HACAT cells; experiment: qHTS cell viability (CellTiter-Glo, 72 h; primary screen), control cell line; format: cell-based, human
[8] = tested on: HEK293T cells; experiment: as above; format: cell-based, human
[9] = tested on: NIH-3T3 cells; experiment: as above; format: cell-based, mouse
[10] = tested on: CRL-7250 cells; experiment: as above; format: cell-based
[11] = tested on: MCC cell lines (WAGA, MKL-1, MKL-2, MCC13, MCC26, UISO); experiment: qHTS cell viability, all six MCC cell lines as a group (mean AUC, MCC.avg); format: cell-based, human
[12] = tested on: VP-MCC cell lines (WAGA, MKL-1, MKL-2); experiment: qHTS cell viability, VP-MCC cell lines as a group (mean AUC, VP.MCC.avg); format: cell-based, human; details: for VP-MCC_Avg_AUC: mean AUC of VP-MCC cell lines
[13] = tested on: VN-MCC cell lines (MCC13, MCC26, UISO); experiment: qHTS cell viability, VN-MCC cell lines as a group (mean AUC, VN.MCC.avg); format: cell-based, human; details: for VN-MCC_Avg_AUC: mean AUC of VN-MCC cell lines
[14] = tested on: control cell lines (HACAT, HEK293T, CRL-7250, NIH-3T3); experiment: qHTS cell viability, control cell lines as a group (mean AUC, Control.avg); format: cell-based; details: mean AUC of control cell lines
[15] = tested on: six MCC cell lines and four control cell lines; experiment: qHTS cell viability, all 10 cell lines screened; format: cell-based
[16] = NPC library, qHTS dose-response AUC, MCC13
[17] = NPC library; qHTS dose-response AUC, MCC26
[18] = NPC library, qHTS dose-response AUC, UISO
[19] = NPC library, qHTS dose-response AUC, WAGA
[20] = NPC library, qHTS dose-response AUC, MKL1
[21] = NPC library, qHTS dose-response AUC, MKL2
[22] = NPC library, qHTS dose-response AUC, HACAT control
[23] = NPC library; qHTS dose-response AUC, HEK293T control
[24] = NPC library, qHTS dose-response AUC, NIH3T3 control
[25] = NPC library, qHTS dose-response AUC, CRL7250 control
[26] = NPC library, mean AUC of six MCC cell lines
[27] = NPC library, therapeutic window: Control avg AUC minus VP-MCC avg AUC
[28] = NPC library, therapeutic window: Control avg AUC minus VN-MCC avg AUC
[29] = NPC library, therapeutic window: Control avg AUC minus MCC avg AUC
[30] = MIPE library, 11-point DRC, sheet S2E
[31] = MIPE library, 11-point DRC, control cell line, sheet S2E
[32] = MIPE library, mean AUC of six MCC cell lines, sheet S2E
[33] = MIPE library, Control AUC minus VP-MCC AUC (therapeutic window), sheet S2E
[34] = MIPE library, Control AUC minus VN-MCC AUC (therapeutic window), sheet S2E
[35] = MIPE library, Control AUC minus MCC AUC (therapeutic window), sheet S2E
[36] = NPC library, 8-point DRC, area under dose-response curve
[37] = NPC library, 8-point DRC, control cell line

| Compound | MCC13_AUC [1, 16] | MCC26_AUC [2, 17] | UISO_AUC [3, 18] | WAGA_AUC [4, 19] | MKL1_AUC [5, 20] | MKL2_AUC [6, 21] | HACAT_AUC [7, 22] | HEK293T_AUC [8, 23] | NIH3T3_AUC [9, 24] | CRL7250_AUC [10, 25] | MCC_Avg_AUC [11, 26] | VP-MCC_Avg_AUC ([12]; NPC library) | Control-VP-MCC [12, 27] | VN-MCC_Avg_AUC ([13]; NPC library) | Control-VN-MCC [13, 28] | Control_Avg_AUC ([14]; NPC library) | Control-MCC [15, 29] | MCC13_AUC [1, 30] | MCC26_AUC [2, 30] | UISO_AUC [3, 30] | other results |
| --- | --- | --- | --- | --- | --- | --- | --- | --- | --- | --- | --- | --- | --- | --- | --- | --- | --- | --- | --- | --- | --- |
| N=C(N)NN=C(/C=C/c1ccc([N+](=O)[O-])o1)/C=C/c1ccc([N+](=O)[O-])o1 [Nitrovin] | 392.271 | 411.446 | 349.388 | 248.028 | 291.263 | 260.273 | 415.924 | 356.338 | 385.648 | 323.737 | 325.445 | 266.521 | 103.891 | 384.368 | -13.9562 | 370.412 | 44.9672 |  |  |  |  |
| CCCCCCCCOc1ccccc1C(=O)Nc1ccc(C(=O)OCC[N+](C)(CC)CC)cc1 [Octylonium bromide] | 437.863 |  | 389.713 | 419.958 | 364.23 | 359.851 | 466.719 | 439.213 | 470.129 | 483.471 | 399.88 | 381.346 | 83.5367 | 418.414 | 46.4688 | 464.883 | 65.0028 |  |  |  | MCC26_AUC ([2]; NPC library, qHTS dose-response AUC, MCC26): 427.666; HEK293T_AUC ([8]; NPC library, qHTS dose-response AUC, HEK293T control): 439.212; MCC_Avg_AUC ([11]; NPC library, mean AUC of all 6 MCC cell lines): 399.88; Control-VP-MCC ([12]; Control AUC minus VP-MCC AUC): 83.5367; Control-VN-MCC ([13]; Control AUC minus VN-MCC AUC): 46.4688 |
| Cc1[nH]c(/C=C2\C(=O)Nc3ccccc32)c(C)c1CCC(=O)O [Orantinib] |  |  |  |  |  |  |  |  |  |  |  |  |  |  |  |  |  | 429.293 | 450.485 | 326.059 | WAGA_AUC [4, 30]: 255.586; MKL1_AUC [5, 30]: 273.854; MKL2_AUC [6, 30]: 325.675; HACAT_AUC [7, 31]: 472.413; HEK293T_AUC [8, 31]: 367.406; NIH3T3_AUC [9, 31]: 371.272; CRL7250_AUC [10, 31]: 403.945; MCC_Avg_AUC [11, 32]: 343.492; Control-VP-MCC [12, 33]: 118.721; VP-MCC_Avg_AUC ([12]; MIPE library, sheet S2E): 285.038; Control-VN-MCC [13, 34]: 1.813; VN-MCC_Avg_AUC ([13]; MIPE library, sheet S2E): 401.946; Control_Avg_AUC ([14]; MIPE library, sheet S2E): 403.759; Control-MCC [15, 35]: 60.2668 |
| C=C1C(=O)[C@]23[C@H](O)[C@H]1CC[C@H]2[C@@]12CO[C@]3(O)[C@@H](O)[C@@H]1C(C)(C)CC[C@@H]2O [Oridonin] |  |  |  |  |  |  |  |  |  |  |  |  |  |  |  |  |  | 444.187 | 486.711 | 376.109 | WAGA_AUC [4, 30]: 351.193; MKL1_AUC [5, 30]: 359.043; MKL2_AUC [6, 30]: 318.538; HACAT_AUC [7, 31]: 442.799; HEK293T_AUC [8, 31]: 399.439; NIH3T3_AUC [9, 31]: 414.657; CRL7250_AUC [10, 31]: 432.105; MCC_Avg_AUC [11, 32]: 389.297; Control-VP-MCC [12, 33]: 79.3252; VP-MCC_Avg_AUC ([12]; MIPE library, sheet S2E): 342.925; Control-VN-MCC [13, 34]: -13.4189; VN-MCC_Avg_AUC ([13]; MIPE library, sheet S2E): 435.669; Control_Avg_AUC ([14]; MIPE library, sheet S2E): 422.25; Control-MCC [15, 35]: 32.9531 |
| CCCCC1C(=O)N(c2ccccc2)N(c2ccc(O)cc2)C1=O (stereo not shown) [Oxyphenbutazone] | 405.464 | 450.163 | 403.541 | 370.924 | 340.624 | 317.862 | 428.222 | 361.816 | 433.353 | 449.026 | 381.43 | 343.137 | 74.9673 | 419.723 | -1.619 | 418.104 | 36.6743 |  |  |  |  |
| O=S1(=O)OC(c2ccc(O)cc2)(c2ccc(O)cc2)c2ccccc21 [Phenol red] |  |  |  |  |  |  |  |  |  |  | 431.761 | 446.945 |  | 416.577 |  | 477.832 |  |  |  |  | MCC13_AUC [1, 36]: 422.151; MCC26_AUC [2, 36]: 404.069; UISO_AUC [3, 36]: 423.512; WAGA_AUC [4, 36]: 458.996; MKL1_AUC [5, 36]: 429.88; MKL2_AUC [6, 36]: 451.959; HACAT_AUC [7, 37]: 492.366; HEK293T_AUC [8, 37]: 472.146; NIH3T3_AUC [9, 37]: 484.742; CRL7250_AUC [10, 37]: 462.075; Control-VP-MCC ([12]; NPC library, Control AUC minus VP-MCC AUC (therapeutic window)): 30.8871; Control-VN-MCC ([13]; NPC library, Control AUC minus VN-MCC AUC (therapeutic window)): 61.2549; Control-MCC ([15]; NPC library, Control AUC minus MCC AUC (therapeutic window)): 46.071 |
